In patent US20240327364A1, “THERAPEUTIC TARGETING OF GPR68 TO INDUCE FERROPTOSIS” (University Of Maryland, Baltimore, priority 2023, published 2024):
Marks after values point to notes of the source that are not given here.

Tests used:
ABL2 = target: T1, ABL2 (Homo sapiens, UniProt P42684); test: KinomeScan; format: binding; details: read-out: % Control
T1 construct: purchased DiscoveRx

FLT3 = target: T2, FLT3 (Homo sapiens, UniProt P36888); test: KinomeScan; format: binding; details: read-out: % Control
T2 construct: purchased DiscoveRx (Fremont, CA)

FLT3(N841I) = target: T3, FLT3(N841I) (Homo sapiens, UniProt P36888, N841I); test: KinomeScan; format: binding; details: read-out: % Control
T3 construct: purchased DiscoveRx (Fremont, CA)

HIPK1 = target: T4, HIPK1 (Homo sapiens, UniProt Q86Z02); test: KinomeScan; format: binding; details: read-out: % Control
T4 construct: purchased DiscoveRx (Fremont, CA)
T4 sequence (Q86Z02 whole entry): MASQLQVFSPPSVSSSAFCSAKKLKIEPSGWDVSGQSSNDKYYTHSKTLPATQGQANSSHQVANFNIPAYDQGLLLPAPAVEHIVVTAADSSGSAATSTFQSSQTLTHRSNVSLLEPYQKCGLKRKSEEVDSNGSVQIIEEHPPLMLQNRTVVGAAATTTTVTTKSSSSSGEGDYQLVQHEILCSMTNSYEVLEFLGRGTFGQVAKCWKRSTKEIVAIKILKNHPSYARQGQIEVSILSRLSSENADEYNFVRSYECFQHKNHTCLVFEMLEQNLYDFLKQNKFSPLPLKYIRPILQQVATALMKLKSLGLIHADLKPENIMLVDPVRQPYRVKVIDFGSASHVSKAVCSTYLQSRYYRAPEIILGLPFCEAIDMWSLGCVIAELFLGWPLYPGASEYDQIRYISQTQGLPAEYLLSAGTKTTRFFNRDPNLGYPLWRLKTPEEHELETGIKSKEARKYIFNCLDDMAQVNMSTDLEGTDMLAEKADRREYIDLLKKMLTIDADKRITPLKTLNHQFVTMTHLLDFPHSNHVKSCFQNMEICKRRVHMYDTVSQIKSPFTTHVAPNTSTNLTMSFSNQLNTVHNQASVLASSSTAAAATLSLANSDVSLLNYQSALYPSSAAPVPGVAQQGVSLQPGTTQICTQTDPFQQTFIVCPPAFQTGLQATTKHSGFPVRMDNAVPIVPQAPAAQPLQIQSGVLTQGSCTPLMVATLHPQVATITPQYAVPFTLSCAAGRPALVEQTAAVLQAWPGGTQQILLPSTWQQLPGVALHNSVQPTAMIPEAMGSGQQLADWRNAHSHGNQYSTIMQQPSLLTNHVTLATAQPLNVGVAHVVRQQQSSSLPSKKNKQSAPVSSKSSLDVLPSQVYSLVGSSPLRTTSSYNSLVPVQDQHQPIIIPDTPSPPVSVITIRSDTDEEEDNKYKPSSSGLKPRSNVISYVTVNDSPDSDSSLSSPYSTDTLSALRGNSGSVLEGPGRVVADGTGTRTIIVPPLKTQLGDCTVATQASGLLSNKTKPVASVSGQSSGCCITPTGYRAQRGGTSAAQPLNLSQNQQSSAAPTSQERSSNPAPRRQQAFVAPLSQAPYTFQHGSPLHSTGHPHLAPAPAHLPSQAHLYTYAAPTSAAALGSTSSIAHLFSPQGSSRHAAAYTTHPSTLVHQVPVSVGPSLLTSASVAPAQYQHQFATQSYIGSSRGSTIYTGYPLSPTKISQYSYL

NDR1 = target: T5, NDR1 (Homo sapiens, UniProt Q15208); test: KinomeScan; format: binding; details: read-out: % Control
T5 construct: purchased DiscoveRx
T5 sequence (Q15208 whole entry): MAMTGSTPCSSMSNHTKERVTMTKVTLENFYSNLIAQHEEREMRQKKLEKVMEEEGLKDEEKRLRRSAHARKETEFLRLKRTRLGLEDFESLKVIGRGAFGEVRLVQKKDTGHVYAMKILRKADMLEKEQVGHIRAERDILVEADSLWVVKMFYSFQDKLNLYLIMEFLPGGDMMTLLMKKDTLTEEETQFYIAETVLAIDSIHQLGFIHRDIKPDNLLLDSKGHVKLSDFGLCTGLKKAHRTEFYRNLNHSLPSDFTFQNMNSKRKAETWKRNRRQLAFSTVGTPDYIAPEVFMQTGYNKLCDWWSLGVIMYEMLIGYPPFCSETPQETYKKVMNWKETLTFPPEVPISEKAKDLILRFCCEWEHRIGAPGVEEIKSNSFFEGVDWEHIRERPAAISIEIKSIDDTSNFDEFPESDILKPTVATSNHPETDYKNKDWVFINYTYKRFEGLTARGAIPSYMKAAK

NEK7 = target: T6, NEK7 (Homo sapiens, UniProt Q8TDX7); test: KinomeScan; format: binding; details: read-out: % Control
T6 construct: purchased DiscoveRx

PIK3CA(H1047Y) = target: T7, PIK3CA(H1047Y) (Homo sapiens, UniProt P42336, H1047Y); test: KinomeScan; format: binding; details: read-out: % Control
T7 construct: purchased DiscoveRx (Fremont, CA)

SGK3 = target: T8, SGK3 (Homo sapiens, UniProt Q96BR1); test: KinomeScan; format: binding; details: read-out: % Control
T8 construct: purchased DiscoveRx (Fremont, CA)

SNARK = target: T9, SNARK (Homo sapiens, UniProt Q9H093); test: KinomeScan; format: binding; details: read-out: % Control
T9 construct: purchased DiscoveRx (Fremont, CA)

TLK1 = target: T10, TLK1 (Homo sapiens, UniProt Q9UKI8); test: KinomeScan; format: binding; details: read-out: % Control
T10 construct: purchased DiscoveRx (Fremont, CA)

TXK = target: T11, TXK (Homo sapiens, UniProt P42681); test: KinomeScan; format: binding; details: read-out: % Control
T11 construct: purchased DiscoveRx

ADRB1 = target: T12, ADRB1 (Homo sapiens, UniProt P08588); test: GPCR Profiler; format: cell-based
T12 construct: host or cells: Chem-1 cells with promiscuous Gα15
T12 sequence (P08588 whole entry, species assumed): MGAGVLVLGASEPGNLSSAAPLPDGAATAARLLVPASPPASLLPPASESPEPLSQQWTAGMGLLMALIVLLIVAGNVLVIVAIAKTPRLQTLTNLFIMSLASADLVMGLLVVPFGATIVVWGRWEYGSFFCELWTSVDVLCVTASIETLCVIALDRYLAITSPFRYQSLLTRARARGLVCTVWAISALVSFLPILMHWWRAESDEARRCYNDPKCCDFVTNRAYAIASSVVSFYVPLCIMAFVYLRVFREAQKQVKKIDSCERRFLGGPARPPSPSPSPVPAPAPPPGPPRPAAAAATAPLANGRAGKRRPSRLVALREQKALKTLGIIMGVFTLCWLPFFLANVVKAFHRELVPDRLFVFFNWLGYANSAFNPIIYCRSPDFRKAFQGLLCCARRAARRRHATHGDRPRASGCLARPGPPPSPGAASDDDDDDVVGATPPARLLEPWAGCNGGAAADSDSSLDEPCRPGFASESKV

AT1 = target: T13, AT1 (Homo sapiens, UniProt P30556); test: GPCR Profiler; format: cell-based
T13 construct: host or cells: Chem-1 cells with promiscuous Gα15
T13 sequence (P30556 whole entry): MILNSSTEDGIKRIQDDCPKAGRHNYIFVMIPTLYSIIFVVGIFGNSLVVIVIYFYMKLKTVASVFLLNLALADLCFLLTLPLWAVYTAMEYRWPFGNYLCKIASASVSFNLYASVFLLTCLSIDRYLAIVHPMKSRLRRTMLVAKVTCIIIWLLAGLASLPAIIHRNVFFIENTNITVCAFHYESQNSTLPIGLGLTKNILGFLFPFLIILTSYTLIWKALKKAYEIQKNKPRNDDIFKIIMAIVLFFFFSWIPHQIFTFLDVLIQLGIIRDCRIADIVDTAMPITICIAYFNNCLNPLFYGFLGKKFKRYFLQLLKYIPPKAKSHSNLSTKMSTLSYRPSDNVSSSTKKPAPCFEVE

BLY1 = target: T14, BLY1 (Homo sapiens, UniProt Q15722); test: GPCR Profiler; format: cell-based
T14 construct: host or cells: Chem-1 cells with promiscuous Gα15
T14 sequence (Q15722 whole entry): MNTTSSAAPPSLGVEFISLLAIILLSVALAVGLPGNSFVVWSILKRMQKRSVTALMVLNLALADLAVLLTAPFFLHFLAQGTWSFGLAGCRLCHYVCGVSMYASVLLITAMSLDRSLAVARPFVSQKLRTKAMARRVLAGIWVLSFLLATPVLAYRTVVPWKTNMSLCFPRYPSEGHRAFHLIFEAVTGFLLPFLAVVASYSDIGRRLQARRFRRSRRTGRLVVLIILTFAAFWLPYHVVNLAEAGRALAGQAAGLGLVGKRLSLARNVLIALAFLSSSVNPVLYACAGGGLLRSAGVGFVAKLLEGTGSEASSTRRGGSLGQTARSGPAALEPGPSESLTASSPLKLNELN

C3aR = target: T15, C3aR (Homo sapiens, UniProt Q16581); test: GPCR Profiler; format: cell-based
T15 construct: host or cells: Chem-1 cells with promiscuous Gα15
T15 sequence (Q16581 whole entry, species assumed): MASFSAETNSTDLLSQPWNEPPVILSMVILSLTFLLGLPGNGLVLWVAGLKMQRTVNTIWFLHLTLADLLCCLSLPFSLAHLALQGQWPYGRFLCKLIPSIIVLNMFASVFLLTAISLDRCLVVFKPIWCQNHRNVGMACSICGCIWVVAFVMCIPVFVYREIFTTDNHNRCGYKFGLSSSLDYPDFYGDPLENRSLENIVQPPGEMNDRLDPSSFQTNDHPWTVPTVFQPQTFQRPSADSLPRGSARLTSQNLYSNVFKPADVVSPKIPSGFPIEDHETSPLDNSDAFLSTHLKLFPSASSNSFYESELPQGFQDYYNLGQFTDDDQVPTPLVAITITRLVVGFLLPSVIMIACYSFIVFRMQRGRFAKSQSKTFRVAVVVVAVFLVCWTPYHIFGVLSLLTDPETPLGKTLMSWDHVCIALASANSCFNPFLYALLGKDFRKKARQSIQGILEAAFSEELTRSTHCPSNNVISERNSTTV

GAL2 = target: T16, GAL2 (Homo sapiens, UniProt O43603); test: GPCR Profiler; format: cell-based
T16 construct: host or cells: Chem-1 cells expressing Gα15
T16 sequence (O43603 whole entry): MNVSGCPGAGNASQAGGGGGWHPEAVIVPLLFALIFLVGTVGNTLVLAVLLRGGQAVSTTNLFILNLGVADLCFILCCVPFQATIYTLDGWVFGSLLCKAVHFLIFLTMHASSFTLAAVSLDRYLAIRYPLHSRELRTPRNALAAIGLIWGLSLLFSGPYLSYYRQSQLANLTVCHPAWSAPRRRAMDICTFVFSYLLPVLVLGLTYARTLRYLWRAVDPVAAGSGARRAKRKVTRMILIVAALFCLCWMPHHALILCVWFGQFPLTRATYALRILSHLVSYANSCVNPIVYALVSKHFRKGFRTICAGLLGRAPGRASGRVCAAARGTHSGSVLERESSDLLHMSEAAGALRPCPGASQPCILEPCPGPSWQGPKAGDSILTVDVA

GPR14 = target: T17, GPR14 (Homo sapiens, UniProt Q9UKP6); test: GPCR Profiler; format: cell-based; details: 12.5 uM
T17 construct: host or cells: Chem-1 cells expressing Gα15
T17 sequence (Q9UKP6 whole entry): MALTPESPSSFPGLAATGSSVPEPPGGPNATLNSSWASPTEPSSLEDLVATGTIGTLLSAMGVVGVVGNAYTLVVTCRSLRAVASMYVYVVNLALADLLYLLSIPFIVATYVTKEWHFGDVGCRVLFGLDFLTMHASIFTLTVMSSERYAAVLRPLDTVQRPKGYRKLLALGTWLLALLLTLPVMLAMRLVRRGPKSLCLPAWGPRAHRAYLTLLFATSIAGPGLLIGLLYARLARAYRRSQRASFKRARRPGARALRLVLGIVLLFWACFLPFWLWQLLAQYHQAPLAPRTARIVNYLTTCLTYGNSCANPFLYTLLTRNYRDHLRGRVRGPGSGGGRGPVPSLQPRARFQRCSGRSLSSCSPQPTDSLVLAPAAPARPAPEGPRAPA

V1A = target: T18, V1A (Homo sapiens, UniProt P37288); test: GPCR Profiler; format: cell-based
T18 construct: host or cells: Chem-1 cells with Gα15
T18 sequence (P37288 whole entry): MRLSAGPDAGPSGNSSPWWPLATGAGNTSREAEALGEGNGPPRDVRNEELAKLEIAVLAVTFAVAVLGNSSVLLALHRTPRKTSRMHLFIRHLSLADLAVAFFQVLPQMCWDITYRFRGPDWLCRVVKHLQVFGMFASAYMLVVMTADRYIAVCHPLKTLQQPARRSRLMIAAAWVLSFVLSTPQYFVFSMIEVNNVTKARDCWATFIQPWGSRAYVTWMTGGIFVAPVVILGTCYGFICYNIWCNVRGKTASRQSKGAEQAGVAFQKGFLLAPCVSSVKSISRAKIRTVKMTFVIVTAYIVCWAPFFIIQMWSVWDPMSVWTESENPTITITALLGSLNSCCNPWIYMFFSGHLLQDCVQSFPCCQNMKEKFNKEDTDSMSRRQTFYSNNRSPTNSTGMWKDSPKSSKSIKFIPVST

V2 = target: T19, V2 (Homo sapiens, UniProt P30518); test: GPCR Profiler; format: cell-based
T19 construct: host or cells: Chem-1 cells expressing Galpha15
T19 sequence (P30518 whole entry): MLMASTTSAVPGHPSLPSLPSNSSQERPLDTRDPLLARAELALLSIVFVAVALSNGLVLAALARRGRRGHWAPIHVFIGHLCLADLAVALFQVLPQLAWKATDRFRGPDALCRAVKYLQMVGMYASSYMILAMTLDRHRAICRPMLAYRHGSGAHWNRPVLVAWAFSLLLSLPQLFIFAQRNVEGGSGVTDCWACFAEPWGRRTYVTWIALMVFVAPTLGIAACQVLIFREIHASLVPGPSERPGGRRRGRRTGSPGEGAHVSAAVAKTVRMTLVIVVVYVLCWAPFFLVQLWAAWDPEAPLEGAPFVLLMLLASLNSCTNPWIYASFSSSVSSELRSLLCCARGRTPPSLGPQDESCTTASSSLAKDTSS

A549 = test: Cell Titer-Glo viability, Lung Adenocarcinoma; format: cell-based; details: 72 hours
Protocol: OGM2 kills wide variety of cancer cell types. Cell sensitivity can be classified in to Very Sensitive (LC50<2 μM), Sensitive (LC50=2 to 10 μM), Mildly Sensitive (LC50>10 μM), and Refractory (no killing at 10 μM). The listed established cell were incubated with OGM2 at 2 μM or 10 μM for 72 hours under standard cell culture conditions, and relative cell number was assessed using Cell Titer-Glo Luminescent Cell Viability Assay (Promega™) following the manufacturer's instructions. Luminescence was determined using a Cytation 5 reader and Gen5 software package (BioTek™).
Cancer cells, which are very sensitive to killing by OGM2 (LCs <2 μM), with reported mRNA expression of GPR68 and the related proton sensing receptor GPR4. LC50's (concentrations causing 50% lethality) were determined using CellTiter-Glo (Promega™, G7570). Cells were plated in 12-well plates (CELLTREAT Scientific Products, 229112) in 1 ml of DMEM with high glucose, GlutaMAX, HEPES, or RPMI 1640 with Penicillin-Streptomycin (ThermoFisher™, 10564029, 11875119 and 15140122) and 10% FBS. Cells were incubated overnight at 37° C. in 5% CO2. Then 1 mL of fresh media was added with DMSO, OGM, or positive control (Erastin; APExBIO Technology, LLC, B1524) and cells incubated for 3 days. On the third day, all media was removed, cells were rinsed with 1×PBS, PBS was removed, and 200 μL of 1× Passive Lysis Buffer (Promega™, E1941) was added to each well. […]. […] Plates were briefly spun down and read on a GloMax-Multi Detection System (Promega™).
The cells listed in the tables above were incubated with OGM2 at 2 μM or 10 μM for 72 hours under standard cell culture conditions, and relative cell number was assessed using Cell Titer-Glo Luminescent Cell Viability Assay (Promega™) following the manufacturer's instructions. Luminescence was determined using a Cytation 5 reader and Gen5 software package (BioTek™). […] The consensus normalized expression value (“nTPM”=normalize transcript per million) was calculated as the maximum nTPM value for each gene in the two data sources.

## CCc1ccc2c(c1)C1(NN=C(c3cccc4ccccc34)S1)C(=O)N2 (centres unmarked) [OGM1, 5-ethyl-5′-naphthalen-1-ylspiro[1H-indole-3,2′-3H-1,3,4-thiadiazole]-2-one]
ABL2
  remaining binding at 10 µM: 100%
FLT3
  remaining binding at 10 µM: 79%
FLT3(N841I)
  remaining binding at 10 µM: 91%
HIPK1
  remaining binding at 10 µM: 99%
NDR1
  remaining binding at 10 µM: 98%
NEK7
  remaining binding at 10 µM: 100%
PIK3CA(H1047Y)
  remaining binding at 10 µM: 59%
SGK3
  remaining binding at 10 µM: 56%
SNARK
  remaining binding at 10 µM: 100%
TLK1
  remaining binding at 10 µM: 53%
TXK
  remaining binding at 10 µM: 99%
ADRB1; 10 uM
  Antagonism: −9.6
ADRB1; 12.5 uM
  Agonism: −1.3
AT1; 10 uM
  Antagonism: −0.7
AT1; 12.5 uM
  Agonism: −0.4
BLY1; 10 uM
  Antagonism: −5.5
BLY1; 12.5 uM
  Agonism: 0.3
C3aR; 10 uM
  Antagonism: 5.4
C3aR; 12.5 uM
  Agonism: 0.2
GAL2; 10 uM
  Antagonism: 1
GAL2; 12.5 uM
  Agonism: 0.4
GPR14
  Agonism: 16.8*
V1A; 10 uM
  Antagonism: 12.3
V1A; 12.5 uM
  Agonism: 0.1
V2; 10 uM
  Antagonism: 2.9
V2; 12.5 uM
  Agonism: 0.6

## CCc1ccc2c(c1)C1(NN=C(c3ccccc3)S1)C(=O)N2 (centres unmarked) [OGM2]
A549
  % Survival 2 μM OGM: 33.6%
  % Survival 10 μM OGM: 18.0%
A549; Homo sapiens, A549, read-out: LC50 (the source's name)
  CC50: < 2000 nM
